Legend:
[1] = test system: Schgr-CCAPR-1; assay: aequorin bioluminescence assay, CHO-WTA11 cells; type: cell-based, Schistocerca gregaria
Text: (§1) To deorphanize the three GPCRs, they were heterologously expressed in Chinese hamster ovary (CHO)-WTA11 cells, which stably express aequorin and a promiscuous Gα16 subunit. […] Intracellular signaling of Schgr-CCAPR-1, -2 and -3 was investigated in Schgr-CCAPR-expressing cells lacking the promiscuous Gα16 subunit (CHO-PAM28 cells) or co-expressing a cyclic AMP (cAMP) response element (CRE)-luciferase reporter (human embryonic kidney (HEK) 293T). In Schgr-CCAPR expressing CHO-PAM28 cells, Schgr-CCAP induced dose-dependent aequorin-based bioluminescent responses, with EC50 values in the subnanomolar range: 0.7 nM, 0.2 nM and 0.5 nM for Schgr-CCAPR-1, -2 and -3, respectively (Figure S4A).
(§2) Figure 2 Aequorin-based bioluminescent responses in cell-based receptor activity assays. (A) Dose-response curves induced by CCAP in CHO-WTA11-Schgr-CCAPR-1, -2 or -3 cells. The EC50 values are indicated. (B) Results for aequorin-based bioluminescent response induced in CHO-WTA11-Schgr-CCAPR-1, -2 and -3 cells upon addition of 1 µM of peptide. These cell-based receptor activity data were obtained from three independent experiments. The cell-based assays were executed in three independent transfections. Error bars in dose-response curves represent the S.E.M and the 100% level refers to the maximal response level. Agonist selectivity was normalized to bioluminescent response acquired by exposure to CCAP. The zero-response level corresponds to treatment with BSA medium only. Abbreviations: Schgr = Schistocerca gregaria, CCAP = crustacean cardioactive peptide, CCAPR = CCAP receptor, CCHa = CCHamide, ASTC = allostatin C, ASTCCC = allostatin CCC, Crz = corazonin, AKH I(I) = adipokinetic hormone I(I), INT = inotocin.
(§3) Aequorin and CRE(6x)-luc reporter assays, as well as maintenance of the cell cultures and cell transfections, were carried out as previously described. […] Minimum bioluminescence values correlate with the signal obtained in the blank condition (without exposure to S. gregaria peptides). Calculations were performed using the output file from the Microwin software (Berthold Technologies, Bad Wildbad, Germany) in Excel (Microsoft). Half-maximal effective concentrations (EC50) were determined with the PRISM software (Graphpad version 6.03) using non-linear regression, log(agonist) vs. normalized response, applied to a sigmoidal dose-response model.

[2] = test system: Schgr-CCAPR-2; assay: aequorin bioluminescence assay, CHO-WTA11 cells; type: cell-based, Schistocerca gregaria
Text: as §1, §2, §3

[3] = test system: Schgr-CCAPR-3; assay: aequorin bioluminescence assay, CHO-WTA11 cells; type: cell-based, Schistocerca gregaria
Text: as §1, §2, §3

[4] = test system: Schgr-CCAPR-1; assay: aequorin bioluminescence assay, CHO-PAM28 cells; type: cell-based, Schistocerca gregaria; conditions: CHO-PAM28 cells lacking Gα16, aequorin; three independent experiments, in triplicate
Text: as §1
as §3, with “model. […]” for “model.”
(§4) S c h g r-C C A P R -1 E C5 0 = 0 ,7 n M
(§5) S c hg r-C C A P R -2 E C5 0 = 0 ,2 n M
(§6) S c h g r-C C A P R -3 E C5 0 = 0 ,5 n M
(§7) S c h g r-C C A P R -1 E C5 0 = 0 ,0 1 n M
(§8) S c hg r-C C A P R -2 E C5 0 = 1 ,2 n M
(§9) S c hg r-C C A P R -3 E C5 0 = 0 ,0 5 n M
(§10) Dose-response curves induced by CCAP for cell -based receptor activity assays A) in CHO-PAM28-Schgr -CCAPR-1, -2 or -3 cells and B) in HEK293T Schgr -CCAPR-1, -2 or -3 cells, co - transfected with CRE(6x)-Luc construct. These cell-based receptor activity data were obtained from three independent experiments. The bioluminescence was measured in triplicate per concentration of Schgr -CCAP and per transfection. Error bars represent the S.E.M and the 100 % level refers to the maximal response level. […]

[5] = test system: Schgr-CCAPR-2; assay: aequorin bioluminescence assay, CHO-PAM28 cells; type: cell-based, Schistocerca gregaria; conditions: CHO-PAM28 cells lacking Gα16, aequorin; three independent experiments, in triplicate
Text: as §1
as §3, with “model. […]” for “model.”
as §4, §5, §6, §7, §8, §9, §10

[6] = test system: Schgr-CCAPR-3; assay: aequorin bioluminescence assay, CHO-PAM28 cells; type: cell-based, Schistocerca gregaria; conditions: CHO-PAM28 cells lacking Gα16, aequorin; three independent experiments, in triplicate
Text: as §1
as §3, with “model. […]” for “model.”
as §4, §5, §6, §7, §8, §9, §10

[7] = test system: Schgr-CCAPR-1; assay: CRE(6x)-luc reporter assay, HEK-293T cells; type: cell-based, Schistocerca gregaria; conditions: CRE-controlled luciferase, three independent experiments, in triplicate
Text: as §1
as §3, with “model. […]” for “model.”
as §4, §5, §6, §7, §8, §9, §10

[8] = test system: Schgr-CCAPR-2; assay: CRE(6x)-luc reporter assay, HEK-293T cells; type: cell-based, Schistocerca gregaria; conditions: CRE-controlled luciferase, three independent experiments, in triplicate
Text: as §1
as §3, with “model. […]” for “model.”
as §4, §5, §6, §7, §8, §9, §10

[9] = test system: Schgr-CCAPR-3; assay: CRE(6x)-luc reporter assay, HEK-293T cells; type: cell-based, Schistocerca gregaria; conditions: CRE-controlled luciferase, three independent experiments, in triplicate
Text: as §1
as §3, with “model. […]” for “model.”
as §4, §5, §6, §7, §8, §9, §10

[10] = test system: prothoracic gland (PG) explants; assay: ecdysteroid secretion by prothoracic gland explants; set-up: species or system Schistocerca gregaria; conditions: 1 µM CCAP, 24 h, 50 µL Grace's insect medium, 30 °C, PG from N5IW nymphs, n = 16 vs n = 15, p < 0.001
Protocol: Figure 6 Ecdysteroid secretion by prothoracic gland (PG) explants incubated for 24 h in a volume of 50 µL Grace’s insect medium (GI) with or without 1 µM CCAP. PGs were micro-dissected from fifth instar (N5) nymphs at N5IW (inter-wing distance of at least 1.8 mm; GI, n = 15; GI + 1 µM CCAP, n = 16) Each data point represents 20E-equivalents secreted by PG from a single nymph. Mean ± S.E.M. is also indicated per group. Significant difference (p < 0.001) is indicated by asterisks (***) and was calculated by an unpaired t-test with Welch’s correction. Used abbreviations: CCAP = crustacean cardioactive peptide and GI = Grace’s Insect Medium.
To correlate the locust’s morphology to the nymphal ecdysteroid titer that regulates molting, hemolymph was collected as well at the described sampling moments. 20 µL hemolymph from each N5 animal was collected into 280 µL cold ethanol. Each sample was further processed as previously described. The ecdysteroid titers were subsequently quantified using the 20-Hydroxyecdysone ELISA kit (Bertin Technologies, Montigny-le-Bretonneux, France), according to the manufacturer’s protocol.
PGs of N5IW nymphs were micro-dissected in S. gregaria saline solution and incubated in 50 µL Grace’s Insect medium (GI) (Invitrogen, Waltham, MA, USA) containing 1 µM CCAP or in GI without peptide. […]

[11] = test system: Schgr-CCAPpre depleted nymphs; assay: rescue of Schgr-CCAPpre depleted nymphs by CCAP injection; type: in vivo, Schistocerca gregaria; conditions: daily 0.92 pg CCAP in 4 µL saline throughout N5; 18/30; vs saline; p < 0.05, Fisher's exact test
Protocol: Figure 4 Phenotypic effect of Schgr-CCAPpre or Schgr-CCAPR-1, -2 and/or -3 depletion on ecdysis. (A) Percentage of nymphs displaying ecdysis arrest at nymphal-adult (N5-Ad) molt (n = 25, per construct). Nymphs were injected at N4D0, N4D4, N5D1, N5D4 and N5D7 with 400 ng of dsGFP (control), dsCCAPpre, dsCCAPR1/2/3a, dsCCAPR1/2/3b, dsCCAPR-1, dsCCAPR-2 or dsCCAPR-3. (B) Percentage of nymphs displaying ecdysis arrest at nymphal-nymphal (N4–N5) and N5-Ad molts (n = 25, per construct). Nymphs were injected in late N3, N4D1 and N4D4 with 400 ng of dsGFP (control), dsCCAPpre or dsCCAPR1/2/3a. (C) The timing of ecdysis initiation in dsGFP (control), dsCCAPpre (Schgr-CCAPpre knockdown) and dsCCAPR1/2/3a (Schgr-CCAPRs knockdown) injected nymphs, as observed starting from freshly molted fifth instar nymphs. A log-rank (Mantel-Cox) test was used to check for significant differences in ecdysis initiation between populations. (D) Rescue of Schgr-CCAPpre depleted nymphs (n = 30) by additional daily injections of 0.92 pg CCAP in 4 µL S. gregaria saline in N5. In the control groups, nymphs received dsGFP injections or dsCCAPpre injections (n = 31), with additional daily injections of S. gregaria saline in N5. Significant differences (p < 0.05) are indicated by an asterisk (*) and calculated by the Fisher’s exact test. (E) Ecdysis deficient phenotype (top photos). […]

[12] = test system: 20E levels; conditions: daily injection, adult American cockroach; ref [35]; cited from earlier work
Protocol: High relative transcript levels of the Schgr-CCAPRs were determined in the PG at N5WD. […] From these observations we conclude that CCAP acts directly on the prothoracic gland as a prothoracicostatic factor. In contrast to the ecdysiostatic activity of CCAP in S. gregaria nymphs, dai ...

[13] = test system: locust oviducts; conditions: Ca^2+-dependent, ref [32]; cited from earlier work
Text: The three Schgr-CCAPRs show high sequence similarity to deorphanized CCAP receptors of D. melanogaster, T. castaneum and R. prolixus. Although only one CCAP receptor has been identified in many insect species, there are other species, such as S. gregaria, which have multiple isoforms. […] This is a commonly occurring feature during evolution of GPCR genes in both vertebrates and invertebrates. To supp ...

[14] = test system: heartbeat and skeletal muscles; set-up: method as in PMID 9151755, PMID 18835439, PMID 16968777; conditions: released into hemolymph during ecdysis; ref [14],[15],[33]; cited from earlier work
[15] = 1 µM peptide, normalized to CCAP response
[16] = aequorin and promiscuous Gα16, three independent experiments

crustacean cardioactive peptide [CCAP]
agonist selectivity, receptor activation [1, 15]: markedly activated | EC50 [1, 16]: 3.65 nM | agonist selectivity, receptor activation [2, 15]: markedly activated | EC50 [2, 16]: 0.32 nM | agonist selectivity, receptor activation [3, 15]: markedly activated | EC50 [3, 16]: 0.59 nM | EC50 [4]: 0.7 nM | EC50 [5]: 0.2 nM | EC50 [6]: 0.5 nM | EC50 [7]: 0.01 nM | EC50 [8]: 1.2 nM | EC50 [9]: 0.05 nM | ecdysteroid secretion (prothoracicostatic activity) [10]: significant prothoracicostatic activity | ecdysteroid secretion (prothoracicostatic activity) ([10]; listed as Schgr-CCAP): suppressed ecdysteroid secretion | rescue effect of ecdysis deficiency phenotype [11]: 60% | 20E levels [12]: elevated 20E levels | oviduct contractions [13]: induces Ca^2+-dependent contractions | heartbeat and contraction of skeletal muscles [14]: stimulate heartbeat and contraction of skeletal muscles

— paper PMC8704491, “Prothoracicostatic Activity of the Ecdysis-Regulating Neuropeptide Crustacean Cardioactive Peptide (CCAP) in the Desert Locust” (International Journal of Molecular Sciences, 2021)
